Results: patent EP2689855B1, “Modified micronization device and use thereof” (Oekomineral AG, priority 2012, dated 2014)
≈ marks a conversion by molar mass, not a printed value.

Key:
Type in all cases: physicochemical
[1] = Water solubility measurement of micronized Pterostilbene; details: thermodynamic from solid
Description: 1.00 kg of Pterostilbene (98% purity, Organic Herb, China) 50 µm of crystalline particles as model substance were subjected to micronization from present invention with additional maintaining of low temperature (20 °C) of substance via slow liquid nitrogen stream flow addition through neck feeder. In this preparation discs with blades in the shape of cubes and extruded triangles were used (Figure 7) , according to the present invention.
Such prepared samples of micronized Pterostilbene were subjected to particles size analyses and water solubility measurement.

[2] = Particle size analysis (Malvern MasterSizer 2000) of micronized samples; details: ursolic acid
Excerpt: The influence of the shape of the blades on the efficiency of the micronization has been studied by the use of the micronization device shown in Figures 1 and 2 from the prior art of the following technical characteristics: • (i) diameter of discs (Ø) of micronizer was 370 mm; • (ii) number of layers of hitting elements (blades) on the discs was 3 on primary and 2 on secondary disc; • (iii) number of blades on each of wreaths of discs was 20/16 (outer/inner wreath) from one side; and 18/16 (outer/inner wreath) from the other side of the micronizer; • (iv) the rotation velocity was 10000 rpm;
1 kg of each sample of same zeolite clinoptilolite was micronized by using the device according to the prior art and three different hitting elements as depicted in figures 5, 6 and 8. The disintegrators are characterized by the following data: • 1. Plates formed according to US4406409 A (Figure 5; Micronization-1); • 2. Slightly curved and indented plates according to HR990263 A2 (Figure 6; Micronizationt-2); and • 3. The hitting elements according to the present invention (Figure 8; Micronization-3) […]
(§1) 1 kg of each sample of ursolic acid (98% purity, Sigma Aldrich) of an average particle size of 30 µm was micronized five times in devices having different hitting elements. The discs were cooled through a feeder opening with liquid nitrogen spraying to avoid overheating of the heat-sensitive substance.
The micronized samples were analyzed for particle size (Malvern MasterSizer 2000), while the extent of crystalline disorder of particles was quantified with isothermal calorimetry (IC TAM 3, TA instruments, USA). Data was recorded with proprietary software Digitam 4.2. […]

[3] = Amorphous content / crystalline disorder by isothermal calorimetry (IC TAM 3); details: ursolic acid
Description: as §1
The micronized samples were analyzed for particle size (Malvern MasterSizer 2000), while the extent of crystalline disorder of particles was quantified with isothermal calorimetry (IC TAM 3, TA instruments, USA). Data was recorded with proprietary software Digitam 4.2.

Work on COc1cc(/C=C/c2ccc(O)cc2)cc(OC)c1 [Pterostilbene] yielded a solubility ([1]; after seven repeated processes of micronization, blades of present invention (Figure 7)) of 128 µg/mL (≈ 499 µM) and a solubility ([1]; before micronization) of 23 µg/mL (≈ 89.7 µM).

With C[C@H]1[C@H](C)CC[C@]2(C(=O)O)CC[C@]3(C)C(=CC[C@@H]4[C@@]5(C)CC[C@H](O)C(C)(C)[C@@H]5CC[C@]43C)[C@H]12 [ursolic acid] the “Volume (%) under” value ([2]; Particles size 0.105 µm, MICRONIZATION-1, five repeated micronization procedures) was 0.00%, the “Volume (%) under” value ([2]; Particles size 0.105 µm, MICRONIZATION-2, five repeated micronization procedures) was 0.00% and the “Volume (%) under” value ([2]; Particles size 0.105 µm, MICRONIZATION-3, five repeated micronization procedures) was 0.00%. For the same molecule, the “Volume (%) under” value ([2]; Particles size 0.120 µm, MICRONIZATION-1, five repeated micronization procedures) was 0.00%, the “Volume (%) under” value ([2]; Particles size 0.120 µm, MICRONIZATION-2, five repeated micronization procedures) was 0.00% and the “Volume (%) under” value ([2]; Particles size 0.120 µm, MICRONIZATION-3, five repeated micronization procedures) was 0.00%. For the same molecule, the “Volume (%) under” value ([2]; Particles size 0.138 µm, MICRONIZATION-1, five repeated micronization procedures) was 0.00%, the “Volume (%) under” value ([2]; Particles size 0.138 µm, MICRONIZATION-2, five repeated micronization procedures) was 0.00% and the “Volume (%) under” value ([2]; Particles size 0.138 µm, MICRONIZATION-3, five repeated micronization procedures) was 0.00%. For the same molecule, the “Volume (%) under” value ([2]; Particles size 0.158 µm, MICRONIZATION-1, five repeated micronization procedures) was 0.00%, the “Volume (%) under” value ([2]; Particles size 0.158 µm, MICRONIZATION-2, five repeated micronization procedures) was 0.00% and the “Volume (%) under” value ([2]; Particles size 0.158 µm, MICRONIZATION-3, five repeated micronization procedures) was 0.28%. For the same molecule, the “Volume (%) under” value ([2]; Particles size 0.182 µm, MICRONIZATION-1, five repeated micronization procedures) was 0.00%, the “Volume (%) under” value ([2]; Particles size 0.182 µm, MICRONIZATION-2, five repeated micronization procedures) was 0.00% and the “Volume (%) under” value ([2]; Particles size 0.182 µm, MICRONIZATION-3, five repeated micronization procedures) was 1.38%. The “Volume (%) under” value ([2]; Particles size 0.209 µm, MICRONIZATION-1, five repeated micronization procedures) was 0.00%, the “Volume (%) under” value ([2]; Particles size 0.209 µm, MICRONIZATION-2, five repeated micronization procedures) was 0.12% and the “Volume (%) under” value ([2]; Particles size 0.209 µm, MICRONIZATION-3, five repeated micronization procedures) was 2.73%. For the same molecule, the “Volume (%) under” value ([2]; Particles size 0.240 µm, MICRONIZATION-1, five repeated micronization procedures) was 0.00%, the “Volume (%) under” value ([2]; Particles size 0.240 µm, MICRONIZATION-2, five repeated micronization procedures) was 0.46% and the “Volume (%) under” value ([2]; Particles size 0.240 µm, MICRONIZATION-3, five repeated micronization procedures) was 3.69%. For the same molecule, the “Volume (%) under” value ([2]; Particles size 0.275 µm, MICRONIZATION-1, five repeated micronization procedures) was 0.01%, the “Volume (%) under” value ([2]; Particles size 0.275 µm, MICRONIZATION-2, five repeated micronization procedures) was 1.19% and the “Volume (%) under” value ([2]; Particles size 0.275 µm, MICRONIZATION-3, five repeated micronization procedures) was 5.39%. For the same molecule, the “Volume (%) under” value ([2]; Particles size 0.316 µm, MICRONIZATION-1, five repeated micronization procedures) was 0.06%, the “Volume (%) under” value ([2]; Particles size 0.316 µm, MICRONIZATION-2, five repeated micronization procedures) was 1.97% and the “Volume (%) under” value ([2]; Particles size 0.316 µm, MICRONIZATION-3, five repeated micronization procedures) was 8.42%. For the same molecule, the “Volume (%) under” value ([2]; Particles size 0.363 µm, MICRONIZATION-1, five repeated micronization procedures) was 0.23%, the “Volume (%) under” value ([2]; Particles size 0.363 µm, MICRONIZATION-2, five repeated micronization procedures) was 2.83% and the “Volume (%) under” value ([2]; Particles size 0.363 µm, MICRONIZATION-3, five repeated micronization procedures) was 11.76%. The “Volume (%) under” value ([2]; Particles size 0.417 µm, MICRONIZATION-1, five repeated micronization procedures) was 0.50%, the “Volume (%) under” value ([2]; Particles size 0.417 µm, MICRONIZATION-2, five repeated micronization procedures) was 4.09% and the “Volume (%) under” value ([2]; Particles size 0.417 µm, MICRONIZATION-3, five repeated micronization procedures) was 14.01%. The “Volume (%) under” value ([2]; Particles size 0.479 µm, MICRONIZATION-1, five repeated micronization procedures) was 0.87%, the “Volume (%) under” value ([2]; Particles size 0.479 µm, MICRONIZATION-2, five repeated micronization procedures) was 5.36% and the “Volume (%) under” value ([2]; Particles size 0.479 µm, MICRONIZATION-3, five repeated micronization procedures) was 19.32%. For the same molecule, the “Volume (%) under” value ([2]; Particles size 0.550 µm, MICRONIZATION-1, five repeated micronization procedures) was 1.12%, the “Volume (%) under” value ([2]; Particles size 0.550 µm, MICRONIZATION-2, five repeated micronization procedures) was 7.01% and the “Volume (%) under” value ([2]; Particles size 0.550 µm, MICRONIZATION-3, five repeated micronization procedures) was 25.19%. For the same molecule, the “Volume (%) under” value ([2]; Particles size 0.631 µm, MICRONIZATION-1, five repeated micronization procedures) was 2.02%, the “Volume (%) under” value ([2]; Particles size 0.631 µm, MICRONIZATION-2, five repeated micronization procedures) was 9.13% and the “Volume (%) under” value ([2]; Particles size 0.631 µm, MICRONIZATION-3, five repeated micronization procedures) was 31.12%. For the same molecule, the “Volume (%) under” value ([2]; Particles size 0.724 µm, MICRONIZATION-1, five repeated micronization procedures) was 3.29%, the “Volume (%) under” value ([2]; Particles size 0.724 µm, MICRONIZATION-2, five repeated micronization procedures) was 11.51% and the “Volume (%) under” value ([2]; Particles size 0.724 µm, MICRONIZATION-3, five repeated micronization procedures) was 36.14%. The “Volume (%) under” value ([2]; Particles size 0.832 µm, MICRONIZATION-1, five repeated micronization procedures) was 4.78%, the “Volume (%) under” value ([2]; Particles size 0.832 µm, MICRONIZATION-2, five repeated micronization procedures) was 13.61% and the “Volume (%) under” value ([2]; Particles size 0.832 µm, MICRONIZATION-3, five repeated micronization procedures) was 42.72%. For the same molecule, the “Volume (%) under” value ([2]; Particles size 0.955 µm, MICRONIZATION-1, five repeated micronization procedures) was 6.12%, the “Volume (%) under” value ([2]; Particles size 0.955 µm, MICRONIZATION-2, five repeated micronization procedures) was 16.29% and the “Volume (%) under” value ([2]; Particles size 0.955 µm, MICRONIZATION-3, five repeated micronization procedures) was 50.02%. The “Volume (%) under” value ([2]; Particles size 1.096 µm, MICRONIZATION-1, five repeated micronization procedures) was 8.44%, the “Volume (%) under” value ([2]; Particles size 1.096 µm, MICRONIZATION-2, five repeated micronization procedures) was 19.17% and the “Volume (%) under” value ([2]; Particles size 1.096 µm, MICRONIZATION-3, five repeated micronization procedures) was 59.80%. The “Amorphous Content (%, w/w)” value ([3]; MICRONIZATION-1, five repeated micronization procedures) was 3.68 %, w/w, the “Amorphous Content (%, w/w)” value ([3]; MICRONIZATION-2, five repeated micronization procedures) was 6.12 %, w/w and the “Amorphous Content (%, w/w)” value ([3]; MICRONIZATION-3, five repeated micronization procedures) was 19.23 %, w/w.
